Laboratory results: ChEMBL document CHEMBL5579847, “Synthesis, design, and optimization of a potent and selective series of pyridylpiperazines as promising antimalarial agents” (Eur J Med Chem, 2024)
Calls of active or inactive are those of the source. The calls are words filed in the database; no cut-off is given here.

What was measured:
Plasmodium falciparum [1] = assay: Antimalarial activity against Plasmodium falciparum 3D7 infected in red blood cells after 96 hrs by SYBR Green I dye based fluorescence assay; type: functional, organism-based, Red blood cell; details: 3D7, Erythrocyte
Plasmodium falciparum [2] = assay: Antimalarial activity against chloroquine-resistant Plasmodium falciparum Dd2 infected in red blood cells after 96 hrs by SYBR Green I dye based fluorescence assay; type: functional, organism-based, Red blood cell; details: Dd2, Erythrocyte
[3] = Selectivity index, ratio of CC50 for cytotoxicity against human HepG2 cell to IC50 for antimalarial activity against Plasmodium falciparum 3D7 infected in red blood cells; type: toxicity, cell-based; details: read-out: Ratio CC50/IC50
[4] = Selectivity index, ratio of CC50 for cytotoxicity against human HepG2 cell to IC50 for antimalarial activity against chloroquine-resistant Plasmodium falciparum Dd2 infected in red blood cells; type: toxicity, cell-based; details: read-out: Ratio CC50/IC50
[5] = Cytotoxicity against human HepG2 cells assessed as reduction in cell viability after 48 hrs by WST-1 assay; type: toxicity, cell-based
[6] = biological target: T1, Dihydroorotate dehydrogenase (quinone), mitochondrial (Plasmodium falciparum (isolate 3D7)) (UniProt Q08210); assay: Inhibition of Plasmodium falciparum DHODH
T1 sequence (whole entry): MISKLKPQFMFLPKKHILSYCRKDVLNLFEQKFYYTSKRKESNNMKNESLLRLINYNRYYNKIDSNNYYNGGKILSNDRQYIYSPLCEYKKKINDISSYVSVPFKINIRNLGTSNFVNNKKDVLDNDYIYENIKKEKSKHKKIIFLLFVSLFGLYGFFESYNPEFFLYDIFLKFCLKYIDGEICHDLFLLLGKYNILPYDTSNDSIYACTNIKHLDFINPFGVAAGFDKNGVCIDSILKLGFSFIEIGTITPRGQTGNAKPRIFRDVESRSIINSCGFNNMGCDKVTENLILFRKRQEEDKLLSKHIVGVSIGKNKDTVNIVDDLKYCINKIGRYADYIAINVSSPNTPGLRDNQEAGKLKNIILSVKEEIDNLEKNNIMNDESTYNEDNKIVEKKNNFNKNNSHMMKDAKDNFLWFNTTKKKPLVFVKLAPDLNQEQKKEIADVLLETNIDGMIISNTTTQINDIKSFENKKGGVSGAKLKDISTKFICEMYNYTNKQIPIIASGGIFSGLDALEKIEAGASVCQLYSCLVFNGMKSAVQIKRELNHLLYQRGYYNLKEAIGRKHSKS

[7] = biological target: T1, Dihydroorotate dehydrogenase (quinone), mitochondrial (Plasmodium falciparum (isolate 3D7)); assay: Inhibition of Plasmodium falciparum DHODH at 250 uM relative to control

SMILES | IC50 (Plasmodium falciparum [1]) | IC50 (Plasmodium falciparum [2]) | selectivity ratio [3] | selectivity ratio [4] | CC50 at 48 h [5] | inhibition [6] | inhibition [7]
O=C(NC1CC1)c1ccc(N2CCN(S(=O)(=O)c3ccccc3)CC2)nc1 | 37.2 µM |  |  |  |  |  | 
N#Cc1cccnc1N1CCN(c2ccc(C(=O)NC3CC3)cn2)CC1 | 6.7 µM | 15 µM | > 15 | > 7 | > 100 µM |  | 
O=C(NC1CC1)c1ccc(N2CCN(c3ncccn3)CC2)nc1 | 5.6 µM | 10.5 µM |  |  |  |  | 
CN1CCN(c2ccc(C(=O)NC3CC3)cn2)CC1 | > 100 µM |  |  |  |  |  | 
O=C(NC1CC1)c1ccc(N2CCN(C(=O)c3ccccc3)CC2)nc1 | > 100 µM |  |  |  |  |  | 
Nc1cccnc1N1CCN(c2ccc(C(=O)NC3CC3)cn2)CC1 | 46.4 µM |  |  |  |  |  | 
O=C(NC1CC1)c1ccc(N2CCN(c3ccccc3)CC2)nc1 | 6 µM | 3.3 µM | > 21 | > 30 | > 100 µM |  | 
O=C(NC1CC1)c1ccc(N2CCN(c3ccccc3F)CC2)nc1 | 1.3 µM | 2.3 µM |  |  |  | inactive | 
COc1ccc(CN2CCN(c3ccc(C(=O)NC4CC4)cn3)CC2)cc1 | 6.5 µM | 13 µM | > 15 | > 8 | > 100 µM |  | 
O=C(NC1CC1)c1ccc(N2CCN(C(=O)c3ccccn3)CC2)nc1 | > 100 µM |  |  |  |  |  | 
COc1ccc(N2CCN(c3ccc(C(=O)NC4CC4)cn3)CC2)cc1 | 2.9 µM | 9.4 µM |  |  |  |  | 
O=C(NC1CC1)c1ccc(N2CCN(c3cccc(O)c3)CC2)nc1 | 4.1 µM | 7.3 µM | 9 | 5 | 36.2 µM |  | 
O=C(NC1CC1)c1ccc(N2CCN(c3cnccn3)CC2)nc1 | 2.8 µM | 3.6 µM | > 36 | > 28 | > 100 µM | inactive | 
O=C(NC1CC1)c1ccc(N2CCN(c3ccc(C(F)(F)F)cn3)CC2)nc1 | 1.1 µM | 1.6 µM |  |  |  |  | 
O=C(NC1CC1)c1ccc(N2CCN(c3ncccc3C(F)(F)F)CC2)nc1 | 1 µM | 4.4 µM | > 96 | > 23 | > 100 µM | inactive | 
O=C(NC1CC1)c1ccc(N2CCN(c3ccccn3)CC2)nc1 | 13.9 µM |  | > 7 |  | > 100 µM |  | 
O=C(NC1CC1)c1ccc(N2CCN(c3ccccc3C(F)(F)F)CC2)nc1 | 1.7 µM | 0.5 µM | > 59 | > 200 | > 100 µM | inactive | 20%
Cc1ccccc1N1CCN(c2ccc(C(=O)NC3CC3)cn2)CC1 | 1 µM | 0.7 µM | > 100 | > 143 | > 100 µM |  | 30%
CCN(CC)CCCC(C)Nc1ccnc2cc(Cl)ccc12 (stereo unspecified) [CHLOROQUINE] | 10.2 µM |  |  |  |  |  | 
O=C(NC1CC1)c1ccc(N2CCNCC2)nc1 | > 100 µM |  |  |  |  |  | 
O=C(NC1CC1)c1ccc(N2CCN(c3ncccc3[N+](=O)[O-])CC2)nc1 | 5.7 µM | 10.2 µM | 9 | 5 | 51.2 µM |  | 
O=C(NC1CC1)c1ccc(N2CCN(c3ccccc3Cl)CC2)nc1 | 0.4 µM | 0.7 µM |  |  |  |  | 
O=C(NC1CC1)c1ccc(N2CCN(Cc3ccccc3)CC2)nc1 | 10.9 µM | 6.1 µM | 1 | 2 | 12.1 µM |  | 
